In BigSolDB 2.1:

O=c1ccc(-c2ccccc2)n[nH]1
solubility (mole fraction)
Details	278.15 K	283.15 K	288.15 K	293.15 K	298.15 K	303.15 K	308.15 K	313.15 K	318.15 K
in ethanol	0.00242	0.00289	0.00342	0.00402	0.00466	0.00547	0.00637	0.00736	0.00846
in ethylene glycol	0.00304	0.00369	0.00445	0.00536	0.00646	0.0076	0.00905	0.0106	0.0124
in isopropanol	0.00411	0.00489	0.00579	0.00684	0.00795	0.0094	0.0109	0.0126	0.0142
in methanol	0.00124	0.00153	0.00183	0.0022	0.00265	0.00309	0.00365	0.00432	0.00502
in water	2.53e-06	3.14e-06	3.86e-06	4.72e-06	5.84e-06	7.08e-06	8.51e-06	1.02e-05	1.22e-05
